What was measured:
Format in all cases: cell-based, mouse
B16 melanoma cells = assay: In vitro migration (wound healing) assay with pre-treated MDSCs; details: co-culture with pre-treated lal−/− Ly6G+ cells; 24 hours; mitomycin C
Procedure: In vitro wound healing assay was performed to analyze B16 melanoma cell migration. Briefly, B16 melanoma cells were seeded at a density of 1.5×10^5 cells/well into a 24-well plate and incubated overnight to form a confluent monolayer. Scratch was created by scraping the cell monolayer in a straight line with a p200 pipet tip. After washing 3 times with DMEM, the medium was changed with DMEM containing 10% FBS and 5 μg/mL mitomycin C (Sigma-Aldrich, St. Louis, Mo., USA), and MDSCs pre-treated with 9-HODE or ethanol for 24 hours were added onto B16 melanoma cell monolayer at a density of 1×10^6 cells/well. Images were taken at 0 and 24 hours after creating the scratch. Migration was estimated by measuring the distances from one side of scratch to the other side using Image Pro-Plus software (Media Cybernetics, Rockville, Md., USA).

Ly6G+CD11b+ cells [1] = assay: ROS level in Ly6G+CD11b+ cells by flow cytometry; details: lal−/− Ly6G+CD11b+ cells; 20 μmol/L, 48 hours
Procedure: (§1) The reactive oxygen species (ROS) level and mitochondrial membrane potential in MDSCs was measured by flow cytometry. Briefly, bone marrow cells were first treated with or without 20 μmol/L 9-HODE or ethanol for 2 days. For ROS level detection, cells were harvested, washed, and stained with 2′,7′-dichlorofluorescein diacetate (2 μmol/L, Invitrogen), allophycocyanin cy7-conjugated anti-Ly6G Ab, and phycoerythrin cy7-conjugated anti-CD 11b Ab (eBioscience) at 37° C. for 15 minutes. After PBS wash, the ROS level in Ly6G^+CD11b^+ cells was analyzed using a LSRII machine (BD Biosciences).

Ly6G+CD11b+ cells [2] = assay: Mitochondrial membrane potential (JC-1) in Ly6G+CD11b+ cells by flow cytometry; details: lal−/− Ly6G+CD11b+ cells; 20 μmol/L, 48 hours; vs ethanol
Procedure: as §1
For mitochondrial membrane potential measurement, cells were stained with the fluorescent dye JC-1 (2 μmol/L, Molecular Probes, Eugene, Oreg., USA), allophycocyanin cy7-conjugated anti-Ly6G antibody, and phycoerythrin cy7-conjugated anti-CD 11b antibody (eBioscience) at 37° C. for 15 minutes, and then analyzed for phycoerythrin (JC-1 red) and fluorescein isothiocyanate (JC-1 green) fluorescent cells in Ly6G^+CD11b^+ cells by flow cytometry. Cells treated with 50 μmol/L carbonyl cyanide 3-chlorophenylhydrazone for 5 minutes were served as a fluorescein isothiocyanate-positive control.

Lin− cells = assay: Differentiation of bone marrow Lin− cells into Ly6G+CD11b+ cells; details: lal−/− Lin− cells; 10 μmol/L, 5 days; vs ethanol
Procedure: Lineage-negative (Lin−) cells were isolated from the bone marrow by removing blood lineage marker-positive cells with an immunomagnetic microbead technique. Briefly, bone marrow cells were first incubated with a cocktail of biotin-conjugated antibodies against lineage specific antigens: CD11b, GR-1, B220, TER-119, and CD3ε (Mouse Lineage Panel Kit, BD Pharmingen, San Diego, Calif., USA) at 4° C. for 15 minutes. After washed with PBS, cells were then incubated with anti-biotin microbeads at 4° C. for another 15 minutes. Subsequently, cells were subjected to magnetic bead sorting according to the manufacturer's instructions (Miltenyi Biotec.). The resulting Lin− cells were cultured in RPMI1640 with 10% FBS. Five days later, Ly6G^+CD11b^+ cells derived from Lin− cells were analyzed by flow cytometry analysis.

bone marrow cells = assay: Transwell assay of bone marrow cell transendothelial migration towards BALF; details: BALF from doxycycline-treated CCSP-Tg/KO mice in lower chamber; 4 hours
Procedure: Transwell assay was used to determine cell transendothelial migration. ECs were added to the upper chamber of 24-well 8.0-μm-pore Transwell plates (Corning, Corning, N.Y., USA), and incubated at 37° C., 5% CO2 for 48 hours to form an EC monolayer. The supernatant was then removed, and CELLTRACKER™ Green 5-Chloromethylfluorescein Diacetate (CMFDA) (Invitrogen, Grand Island, N.Y., USA)-labeled bone marrow cells (1×10^4 cells in 200 μL media) were added to the upper well. After 4 hours, transendothelial migration of bone marrow cells was determined by counting their numbers in the lower chamber under 5 random microscopic fields.

[3] = system: pulmonary endothelial cells (ECs); assay: In vitro BALF treatment of pulmonary endothelial cells (proliferation, wound healing)
Procedure: ECs were isolated from lal^+/+ lungs and cultured in vitro. Briefly, the mouse was anesthetized and 1 mL collagenase A (2 mg/mL, Roche, Indianapolis, Ind., USA) was infused into the lung through the trachea. The lung was removed and then incubated with 10 mL collagenase A at 37° C. for 30 minutes. After the incubation, the resulting cell suspension was filtered through a 40 μm strainer and centrifuged for 5 minutes at 1,500 rpm. After removal of the supernatant, the cell pellet was subjected to magnetic bead sorting using anti-CD31 microbeads (Miltenyi Biotec., Auburn, Calif., USA) according to the manufacturer's protocol. The resulting cells were plated onto gelatin-coated (Sigma-Aldrich) 6-well plates and maintained in DMEM supplemented with endothelial cell growth supplement, heparin, L-Glutamine (Sigma-Aldrich), FBS, and Antibiotic-Antimycotic (Gibco).
To examine the effect of BALF on EC proliferation, 5×10^4 ECs were seeded into a well of 24-well plates in 250 μL DMEM supplemented with 10% FBS, and then treated with 250 μL BALF harvested from lal^+/+, lal^−/− or CCSP-Tg/KO triple mice. Seventy-two hours later, the number of ECs was counted.
To analyze the effects of BALF on tumor cell or EC migration, in vitro wound healing assays were performed. […]

Molecule: 9-hydroxyoctadecadienoic acid [9-HODE]
- B16 melanoma cell migration into wound area (B16 melanoma cells): delayed migration towards the scratch
- ROS production (Ly6G+CD11b+ cells [1]): suppressed the increased ROS production
- mitochondrial membrane potential (Ly6G+CD11b+ cells [2]): partially recovered
- Ly6G+CD11b+ cells derived from Lin− cells (Lin− cells): fewer Ly6G^+CD11b^+ cells

B1: hLAL: human lysosomal acid lipase expressed from a doxycycline-controlled tissue-specific transgene in lal−/− mice; never administered as a protein (protein)
chain: GPKPVVFLQHGLLADSSNWVTNLANSSLGFILADAGFDVWMGNSRGNTWSRKHKTLSVSQDEFWAFSYDEMAKYDLPASINFILNKTGQEQVYYVGHSQGTTIGFIAFSQIPELAKRIKMFFALGPVASVAFCTSPMAKLGRLPDHLIKDLFGDKEFLPQSAFLKWLGTHVCTHVILKELCGNLCFLLCGFNERNLNMSRVDVYTTHSPAGTSVQNMLHWSQAVKFQKFQAFDWGSSAKNYFHYNQSYPPTYNVKDMLVPTAVWSGGHDWLADVYDVNILLTQITNLVFHESIPEWEHLDFIWGLDAPWRLYNKIINLMRKYQ
modifications: left off: small tags and cut ends
notes: human lysosomal acid lipase expressed from a doxycycline-controlled tissue-specific transgene in lal−/− mice; never administered as a protein
- bone marrow cell transendothelial migration (bone marrow cells): decreased bone marrow cell transendothelial migration
- EC migration (wound healing) ([3]; BALF from doxycycline-treated CCSP-Tg/KO mice, 15 hours, mitomycin C): decreased EC migration
- EC proliferation ([3]; lal+/+ ECs with BALF from doxycycline-treated CCSP-Tg/KO mice, 72 hours): decreased EC proliferation
